Results on 1 compound are retold here after patent US20230053297A1, “COMPOSITIONS AND METHODS TO INCREASE SERUM DILEUCINE LEVELS” (Ingenious Ingredients, LP, priority 2021, published 2023).

The nature of this data set: Plasma dileucine pharmacokinetics after a single dose of leucine or whey protein isolate in healthy men. The settings on record: male, human, in vivo. As for the experimental part: Five healthy men between the ages of 18-50 years of age were recruited to participate in this study. Prior to beginning the study, all participants signed an informed consent document and complete a healthy history questionnaire to determine study eligibility.
All participants reported to the laboratory between 06:00-10:00 hours and observing an 8-10 hour fast. For the two days prior to testing, study participants were given a standardized meal plan to help control for changes in dietary intake prior to testing. Upon arrival, participants heart rate, blood pressure, body mass, height and body composition were measured using DEXA. Prior to body composition assessment, study participants were tested for appropriate hydration status. Using standard multiple sample phlebotomy approaches, approximately 10 mL of venous blood was collected from a forearm vein prior to being administrated a single dose of either leucine (2-gram dose) or whey protein isolate (25-gram dose). In a time course fashion, subsequent venous blood samples were collected 30, 60, 90, 120 and 240 minutes after ingestion of their assigned supplement. Participants were provided 250 mL of cold water to ingest after each blood collection. Study participants returned approximately 3-7 days after completion of the previous study visit to complete an identical testing session as previously described while receiving the alternative treatment.

For orientation: Cmax means the highest concentration seen after dosing. Turning to `CC(C)C[C@H](N)C(=O)O` [leucine], the “AUC Dileucine” value amounted to 37.1 ± 20.2 µmol·h/L, the Cmax was 610 ± 430 nM and the “increase of plasma dileucine levels compared to whey protein (as AUC)” value was determined as 40.5%.
